Experimental data: US8648086B2, “5,6-bicyclic heteroaryl-containing urea compounds as kinase inhibitors” (Ascepion Pharmaceuticals, Inc., priority 2009, dated 2014)
Where a name gives a salt, the structure may show the parent alone.

Tests used:
[1] = tested on: PC-3 human prostate cancer cells; assay: In vivo anti-tumor efficacy, PC-3 xenograft; details: Prostate cancer PC-3, nu/nu Balb/c mice, n = 2 × 3
Procedure: (§1) Female (nu/nu) Balb/c athymic mice at 4-6 weeks of age were injected subcutaneously (s.c.) with MDA-MB-231 human breast cancer cells, A549 human non-small cell lung cancer cells, U87-MG human glioblastoma cells, PC-3 human prostate cancer cells, HT-29 human colon cancer, BEL-7404 human hepatocellular carcinoma, or MKN-45 human gastric cancer cells (ATCC, 5×10^6 cells suspended in 100 μl DMEM medium). Treatment was initiated after the tumor mass grown from s.c. implanted tumor cells reached a median volume of 200-400 mm^3. Mice were randomized into groups with three in each group for small-sample efficacy tests such that the median tumor volume is nearly equal among all groups. For large-sample efficacy tests, mice were randomized into groups with thirteen or fourteen in each group. Each group was treated either with compounds (dissolved in 2:1 mixture of PEG400 and 0.01N HCl (v/v)) or without compounds (vehicle only, 2:1 mixture of PEG400 and 0.01N HCl (v/v)) once per day at dose 12.5, 25, 50 or 100 mg/kg by oral gavage. Tumor volumes were assessed at least twice weekly by caliper measurement from the start of treatment. Tumor volume was calculated using the formula ½×L×W^2 (L: length of tumor's long axis, W: length of tumor's short axis). Treatment was applied for at least two weeks or until the tumor volume reaches a size of ˜2500 mm^3 or greater. Mice were humanly sacrificed after the experiment. The efficacy of compounds in reducing tumor growth was assessed by the index Tumor Growth Inhibition (TGI). TGI for a given treatment period was calculated using the group mean tumor volumes according to the formula: TGI=100×(VVehicle—group−VTreatment—group)÷VVehicle—group wherein VVehicle—group represents the mean tumor volume for the group treated with vehicle and VTreatment—group represents the mean tumor volume of the group treated with a compound.

[2] = tested on: U87-MG human glioblastoma cells; assay: In vivo anti-tumor efficacy, U87-MG xenograft; details: nu/nu Balb/c mice, 100 mg/kg oral once per day, n = 2 × 3
Procedure: as §1, with “For large-sample efficacy tests, mice were randomized into groups with thirteen or fourteen in each group. Each group was treated either with compounds (dissolved in 2:1 mixture of PEG400 and 0.01N HCl (v/v)) or without compounds (vehicle only, 2:1 mixture of PEG400 and 0.01N HCl (v/v)) once per day at dose 12.5, 25, 50 or 100 mg/kg by oral gavage.” left out, “Treatment was applied for at least two weeks or until the tumor volume reaches a size of ˜2500 mm^3 or greater. Mice were humanly sacrificed after the experiment.” left out

[3] = tested on: MDA-MB-231 human breast cancer cells; assay: In vivo anti-tumor efficacy, MDA-MB-231 xenograft; details: Breast cancer MDA-MB-231, nu/nu Balb/c mice, 100 mg/kg oral once per day, n = 2 × 3
Procedure: as §1, with “experiment.” for “experiment. The efficacy of compounds in reducing tumor growth was assessed by the index Tumor Growth Inhibition (TGI). TGI for a given treatment period was calculated using the group mean tumor volumes according to the formula: TGI=100×(VVehicle—group−VTreatment—group)÷VVehicle—group wherein VVehicle—group represents the mean tumor volume for the group treated with vehicle and VTreatment—group represents the mean tumor volume of the group treated with a compound.”
(§2) The efficacy of compounds in reducing tumor growth was assessed by the index Tumor Growth Inhibition (TGI). TGI for a given treatment period was calculated using the group mean tumor volumes according to the formula: TGI=100×(VVehicle—group−VTreatment—group)÷VVehicle—group wherein VVehicle—group represents the mean tumor volume for the group treated with vehicle and VTreatment—group represents the mean tumor volume of the group treated with a compound.

[4] = tested on: A549 human non-small cell lung cancer cells; assay: In vivo anti-tumor efficacy, A549 xenograft; details: Non-small cell lung cancer A549, nu/nu Balb/c mice, n = 2 × 3
Procedure: as §1

VEGFR2 = target: T1, VEGFR2 (Homo sapiens, UniProt P35968); assay: VEGFR2 cell-based assay (phospho-VEGFR2 ELISA, transfected CHO cells); details: compound at 100 nM, read-out: % VEGFR2 kinase activity remains
T1 construct: expressed in transfected cells; host or cells: CHO cells, pcDNA3.1 plasmid
In short: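 Serum-starved CHO cells transfected with full-length VEGFR2 treated 2 h with compound (0.5–500 nM), then stimulated with 20% FBS. Lysates analyzed by ELISA for phospho- and total VEGFR2 using streptavidin-HRP chemiluminescence.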

[5] = tested on: MKN-45 human gastric cancer cells; assay: In vivo anti-tumor efficacy, MKN-45 xenograft; details: Gastric cancer MKN-45, nu/nu Balb/c mice, 100 mg/kg oral once per day, n = 2 × 3
Procedure: as §1

c-Met = target: T2, c-Met (Homo sapiens, UniProt P08581); assay: c-Met cell-based assay (phospho-c-Met ELISA, A549 cells); details: compound at 100 nM
T2 construct: endogenous in cells; host or cells: A549 cells
In short: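 Serum-starved A549 cells (NSCLC) pretreated 2 h with compound (0.5 nM to 500 nM), then stimulated 20 min with 20% FBS. Lysates analysed by ELISA for phospho-c-Met and total c-Met with streptavidin-HRP chemiluminescence.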

PDGFRβ = target: T3, PDGFRβ (Homo sapiens, UniProt P09619); assay: PDGFRβ cell-based assay (phospho-PDGFRβ ELISA, transfected CHO cells); details: compound at 100 nM, read-out: % PDGFRβ kinase activity remains
T3 construct: expressed in transfected cells; host or cells: CHO cells, pcDNA3.1 plasmid
Procedure: A standard cell-based assay for PDGFRβ kinase activity can be used to test a compound of this invention and to identify PDGFRβ antagonists.
Specifically, a compound to be tested was first dissolved in DMSO to a concentration of 10 mM and stored at −20° C. The activity of PDGFRβ in cells depends on the phosphorylation level of its intracellular domain induced by the ligand. In order to express PDGFRβ in the cell, full length PDGFRβ sequence was cloned into PC-DNA3.1 vector. The plasmid was then transfected into CHO cells. After 48 hours following the transfection, the expression of PDGFRβ in transfected CHO cells was confirmed by regular western blotting.
To screen the compound of this invention, the ELISA kit (R&D Systems, Minneapolis, Minn., USA) was used. One day before the screening, CHO cells transfected with full length PDGFRβ plasmid were grown in DMEM medium without the presence of serum. On the day of screening, various concentrations of compounds (from 0.5 nM to 500 nM) were added into DMEM medium. Two hours later, 20% of FBS (Fetal Bovine Serum) was added into the medium to stimulate the expression of phosphor-PDGFRβ. Cell lysate from approximately 5×10^5 transfected CHO cells were reacted with anti-phosphor-PDGFRβ or anti-total PDGFRβ antibody in 96 well plates, in the presence of detection antibody, the phosphor-PDGFRβ or total PDGFRβ were detected with Streptavidin-HRP (R&D Systems), followed by chemiluminescent detection.

HT-1299 = assay: In vivo anti-tumor efficacy, HT-1299 lung cancer xenograft; details: Lung cancer HT-1299, nu/nu Balb/c mice, 100 mg/kg oral once per day, n = 2 × 3
[6] = tested on: BEL-7404 human hepatocellular carcinoma; assay: In vivo anti-tumor efficacy, BEL-7404 xenograft; details: Liver cancer BEL-7404, nu/nu Balb/c mice, 50 mg/kg oral once per day, n = 2 × 3
Procedure: Female (nu/nu) Balb/c athymic mice at 4-6 weeks of age were injected subcutaneously (s.c.) with MDA-MB-231 human breast cancer cells, A549 human non-small cell lung cancer cells, U87-MG human glioblastoma cells, PC-3 human prostate cancer cells, HT-29 human colon cancer, BEL-7404 human hepatocellular carcinoma, or MKN-45 human gastric cancer cells (ATCC, 5×10^6 cells suspended in 100 μl DMEM medium). Treatment was initiated after the tumor mass grown from s.c. implanted tumor cells reached a median volume of 200-400 mm^3. Mice were randomized into groups with three in each group for small-sample efficacy tests such that the median tumor volume is nearly equal among all groups. […] Tumor volumes were assessed at least twice weekly by caliper measurement from the start of treatment. Tumor volume was calculated using the formula ½×L×W^2 (L: length of tumor's long axis, W: length of tumor's short axis). […]
as §2

CSF-1R = target: T4, CSF-1R (Homo sapiens, UniProt P07333); assay: KINOMEscan competition binding assay, CSF-1R; details: compound at 100 nM; lower number indicates stronger hit
T4 construct: purchased KINOMEscan service (Ambit Biosciences, San Diego)
Procedure: (§3) A standard competition binding assay can be used to test the ability of a compound of this invention on competing with both intended and unintended kinases in vitro. To screen a compound against a large number of human kinases, a competition binding assay with an active-site dependent binding technology was performed by KINOMEscan service (Ambit Biosciences, San Diego, Cal., USA). Three components were combined in this assay—DNA-tagged kinase, immobilized ligand, and the test compound. The ability of the test compound to compete with the immobilized ligand was measured by quantitative PCR of the DNA of the DNA tag. A number of the compounds of this invention were screened at the concentration of 100 nM by this binding assay, and the results were reported as “% Ctrl,” and the lower number indicates stronger “hit” in this matrix.

EPHA2 = target: T5, EPHA2 (Homo sapiens, UniProt P29317); assay: KINOMEscan competition binding assay, EPHA2; details: compound at 100 nM; lower number indicates stronger hit
T5 construct: purchased KINOMEscan service (Ambit Biosciences, San Diego)
Procedure: as §3

c-Kit = target: T6, c-Kit (Homo sapiens, UniProt P10721); assay: KINOMEscan competition binding assay, c-Kit; details: compound at 100 nM; lower number indicates stronger hit
T6 construct: purchased KINOMEscan service (Ambit Biosciences, San Diego)
Procedure: as §3

T2 sequence (P08581 25-1390): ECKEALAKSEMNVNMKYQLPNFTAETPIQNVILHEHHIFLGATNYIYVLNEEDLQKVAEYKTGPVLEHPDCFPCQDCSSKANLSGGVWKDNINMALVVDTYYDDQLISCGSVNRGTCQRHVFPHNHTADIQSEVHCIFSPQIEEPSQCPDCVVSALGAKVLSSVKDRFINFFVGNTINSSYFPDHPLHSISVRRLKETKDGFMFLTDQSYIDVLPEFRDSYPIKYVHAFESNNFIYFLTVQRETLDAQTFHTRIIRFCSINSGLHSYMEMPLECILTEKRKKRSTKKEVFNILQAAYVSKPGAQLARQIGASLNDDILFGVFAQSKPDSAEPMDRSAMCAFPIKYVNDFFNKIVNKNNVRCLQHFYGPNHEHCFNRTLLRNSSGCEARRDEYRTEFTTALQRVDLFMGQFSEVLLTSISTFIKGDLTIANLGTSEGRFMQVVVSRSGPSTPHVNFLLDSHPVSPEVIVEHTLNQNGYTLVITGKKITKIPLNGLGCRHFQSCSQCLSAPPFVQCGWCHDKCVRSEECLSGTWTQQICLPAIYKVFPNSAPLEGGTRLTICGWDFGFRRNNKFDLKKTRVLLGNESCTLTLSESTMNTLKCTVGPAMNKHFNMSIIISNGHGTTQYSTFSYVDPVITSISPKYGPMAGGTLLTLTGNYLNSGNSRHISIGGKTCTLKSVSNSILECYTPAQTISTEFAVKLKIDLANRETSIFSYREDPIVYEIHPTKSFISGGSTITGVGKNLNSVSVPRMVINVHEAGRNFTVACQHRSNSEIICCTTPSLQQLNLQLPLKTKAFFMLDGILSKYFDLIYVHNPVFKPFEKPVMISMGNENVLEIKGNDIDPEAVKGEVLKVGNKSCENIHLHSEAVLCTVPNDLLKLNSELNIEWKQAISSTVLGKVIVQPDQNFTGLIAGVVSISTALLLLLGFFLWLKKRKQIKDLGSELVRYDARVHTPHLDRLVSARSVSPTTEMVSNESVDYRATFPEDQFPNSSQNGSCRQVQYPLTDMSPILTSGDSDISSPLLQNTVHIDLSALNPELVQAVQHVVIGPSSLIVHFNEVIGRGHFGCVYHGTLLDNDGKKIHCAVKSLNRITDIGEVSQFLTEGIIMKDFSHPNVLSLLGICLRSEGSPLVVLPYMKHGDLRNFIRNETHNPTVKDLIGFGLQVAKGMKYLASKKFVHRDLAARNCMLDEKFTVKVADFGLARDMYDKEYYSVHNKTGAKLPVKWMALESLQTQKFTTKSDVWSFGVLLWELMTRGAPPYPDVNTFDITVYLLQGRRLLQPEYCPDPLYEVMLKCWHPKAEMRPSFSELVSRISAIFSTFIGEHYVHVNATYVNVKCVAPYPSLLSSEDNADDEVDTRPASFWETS
T1 sequence (P35968 20-1356, species assumed): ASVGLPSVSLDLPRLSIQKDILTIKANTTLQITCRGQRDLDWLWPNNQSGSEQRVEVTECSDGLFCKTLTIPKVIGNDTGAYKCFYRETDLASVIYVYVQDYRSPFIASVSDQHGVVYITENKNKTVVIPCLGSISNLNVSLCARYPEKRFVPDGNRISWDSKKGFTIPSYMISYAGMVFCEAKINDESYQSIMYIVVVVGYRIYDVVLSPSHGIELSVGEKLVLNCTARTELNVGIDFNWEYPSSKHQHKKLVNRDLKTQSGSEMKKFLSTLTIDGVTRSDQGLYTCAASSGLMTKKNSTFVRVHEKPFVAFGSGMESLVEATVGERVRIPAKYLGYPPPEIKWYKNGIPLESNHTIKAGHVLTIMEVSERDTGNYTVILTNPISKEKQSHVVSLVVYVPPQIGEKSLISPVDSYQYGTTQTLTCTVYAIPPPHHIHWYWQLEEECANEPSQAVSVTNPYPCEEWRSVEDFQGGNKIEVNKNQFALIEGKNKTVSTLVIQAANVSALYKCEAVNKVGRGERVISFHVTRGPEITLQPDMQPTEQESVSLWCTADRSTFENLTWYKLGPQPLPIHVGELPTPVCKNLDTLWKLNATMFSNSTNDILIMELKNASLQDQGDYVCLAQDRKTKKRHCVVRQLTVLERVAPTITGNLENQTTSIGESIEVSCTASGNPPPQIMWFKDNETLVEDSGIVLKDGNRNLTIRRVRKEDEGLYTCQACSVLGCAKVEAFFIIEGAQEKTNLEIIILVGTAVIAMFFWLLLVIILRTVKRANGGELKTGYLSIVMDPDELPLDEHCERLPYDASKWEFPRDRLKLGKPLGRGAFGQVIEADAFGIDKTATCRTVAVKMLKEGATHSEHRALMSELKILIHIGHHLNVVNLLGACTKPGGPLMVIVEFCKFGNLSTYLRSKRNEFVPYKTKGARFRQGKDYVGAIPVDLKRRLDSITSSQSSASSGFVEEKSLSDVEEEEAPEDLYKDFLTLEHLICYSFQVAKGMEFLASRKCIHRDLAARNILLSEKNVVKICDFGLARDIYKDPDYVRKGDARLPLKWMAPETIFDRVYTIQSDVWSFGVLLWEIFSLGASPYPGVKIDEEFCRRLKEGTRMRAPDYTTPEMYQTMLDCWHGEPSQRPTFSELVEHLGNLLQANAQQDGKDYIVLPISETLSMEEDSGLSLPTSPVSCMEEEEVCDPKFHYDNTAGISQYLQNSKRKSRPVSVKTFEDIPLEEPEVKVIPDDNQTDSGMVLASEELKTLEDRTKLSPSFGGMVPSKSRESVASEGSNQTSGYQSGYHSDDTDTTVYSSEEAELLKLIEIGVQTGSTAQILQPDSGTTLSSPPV
T5 sequence (P29317 24-976): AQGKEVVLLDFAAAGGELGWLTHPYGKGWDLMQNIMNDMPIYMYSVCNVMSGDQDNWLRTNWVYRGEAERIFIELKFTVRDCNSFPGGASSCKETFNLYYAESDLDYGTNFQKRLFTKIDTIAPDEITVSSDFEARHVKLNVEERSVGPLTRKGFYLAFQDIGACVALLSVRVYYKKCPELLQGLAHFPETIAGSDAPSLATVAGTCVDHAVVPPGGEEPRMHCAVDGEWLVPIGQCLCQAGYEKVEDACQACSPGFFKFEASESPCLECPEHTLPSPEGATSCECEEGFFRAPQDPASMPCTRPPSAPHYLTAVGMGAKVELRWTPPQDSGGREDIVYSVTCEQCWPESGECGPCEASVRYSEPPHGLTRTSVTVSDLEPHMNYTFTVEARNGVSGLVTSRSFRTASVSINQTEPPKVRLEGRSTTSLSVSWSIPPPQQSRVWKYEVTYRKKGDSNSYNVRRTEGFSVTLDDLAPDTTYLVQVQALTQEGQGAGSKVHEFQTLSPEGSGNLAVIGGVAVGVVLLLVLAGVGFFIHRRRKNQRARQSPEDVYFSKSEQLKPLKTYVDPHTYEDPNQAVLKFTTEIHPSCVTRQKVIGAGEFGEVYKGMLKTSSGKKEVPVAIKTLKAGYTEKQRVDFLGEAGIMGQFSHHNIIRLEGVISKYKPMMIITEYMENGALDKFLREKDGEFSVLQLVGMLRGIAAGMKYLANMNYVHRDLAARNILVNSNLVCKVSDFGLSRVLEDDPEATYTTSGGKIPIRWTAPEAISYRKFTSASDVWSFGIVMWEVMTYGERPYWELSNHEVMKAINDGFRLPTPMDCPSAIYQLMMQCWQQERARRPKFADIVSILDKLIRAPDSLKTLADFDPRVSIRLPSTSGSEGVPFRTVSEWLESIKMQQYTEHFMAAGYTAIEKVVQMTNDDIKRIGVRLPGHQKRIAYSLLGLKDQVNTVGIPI
T4 sequence (P07333 20-972): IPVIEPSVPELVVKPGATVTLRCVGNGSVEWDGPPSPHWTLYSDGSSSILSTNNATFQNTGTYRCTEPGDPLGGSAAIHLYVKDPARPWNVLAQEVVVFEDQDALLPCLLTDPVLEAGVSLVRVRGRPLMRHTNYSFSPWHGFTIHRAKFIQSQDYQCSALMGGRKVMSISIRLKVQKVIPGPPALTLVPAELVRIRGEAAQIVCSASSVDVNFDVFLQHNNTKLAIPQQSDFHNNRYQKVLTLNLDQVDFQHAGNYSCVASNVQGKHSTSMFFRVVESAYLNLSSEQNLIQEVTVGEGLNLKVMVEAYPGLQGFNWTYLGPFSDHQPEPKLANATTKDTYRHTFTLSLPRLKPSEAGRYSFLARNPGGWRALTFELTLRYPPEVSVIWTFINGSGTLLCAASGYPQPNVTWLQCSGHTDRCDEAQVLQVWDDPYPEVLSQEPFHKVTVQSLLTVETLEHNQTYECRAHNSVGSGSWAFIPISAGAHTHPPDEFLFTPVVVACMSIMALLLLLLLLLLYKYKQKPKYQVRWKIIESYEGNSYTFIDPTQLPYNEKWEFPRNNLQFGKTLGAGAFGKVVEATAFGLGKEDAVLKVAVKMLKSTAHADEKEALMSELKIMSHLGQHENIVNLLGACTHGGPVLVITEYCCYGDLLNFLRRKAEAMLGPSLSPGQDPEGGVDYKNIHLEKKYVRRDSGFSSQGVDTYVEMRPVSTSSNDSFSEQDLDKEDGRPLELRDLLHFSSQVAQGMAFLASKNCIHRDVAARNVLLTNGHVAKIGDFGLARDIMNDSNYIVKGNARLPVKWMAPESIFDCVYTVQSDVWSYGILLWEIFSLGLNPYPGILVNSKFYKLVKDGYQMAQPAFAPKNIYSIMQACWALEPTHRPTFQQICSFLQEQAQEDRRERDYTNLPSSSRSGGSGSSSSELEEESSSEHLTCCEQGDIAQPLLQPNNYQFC

| Compound | Tumor Growth Inhibition (TGI) ([1]; 100 mg/kg oral once per day) | Tumor Growth Inhibition (TGI) [2] | Tumor Growth Inhibition (TGI) [3] | Tumor Growth Inhibition (TGI) ([4]; 100 mg/kg oral once per day) | remaining activity at 0.1 µM (VEGFR2) [%] | Tumor Growth Inhibition (TGI) [5] | % c-Met kinase activity remains (c-Met) | remaining activity at 0.1 µM (PDGFRβ) [%] | Tumor Growth Inhibition (TGI) (HT-1299) | Tumor Growth Inhibition (TGI) [6] | Tumor Growth Inhibition (TGI) ([1]; 50 mg/kg oral once per day) | CSF-1R % Ctrl (CSF-1R) [% Ctrl] | EPHA2 % Ctrl (EPHA2) [% Ctrl] | c-Kit % Ctrl (c-Kit) [% Ctrl] | Tumor Growth Inhibition (TGI) ([4]; 50 mg/kg oral once per day) |
| --- | --- | --- | --- | --- | --- | --- | --- | --- | --- | --- | --- | --- | --- | --- | --- |
| COc1ccc(Cl)cc1NC(=O)Nc1cccc2c1ccn2Cc1ccnc2[nH]ccc12.Cl [Example 2a/2b, 1-(2-Methoxyl-5-chlorophenyl)-3-[1-(1H-pyrrolo[2,3-b]pyridin-4-ylmethyl)-1H-indol-4-yl]urea hydrochloride] | A (the TGI is greater or equal to 50%) | A (the TGI is greater or equal to 50%) | A (the TGI is greater or equal to 50%) | A (the TGI is greater or equal to 50%) | < 70 | A (the TGI is greater or equal to 50%) | A (the percentage of kinase activity remains is below 70%) |  |  |  |  |  |  |  |  |
| COc1ccc(Cl)cc1NC(=O)Nc1cccc2c1ccn2Cc1c[nH]c2ncccc12.Cl [Example 3, 1-(2-Methoxyl-5-chlorophenyl)-3-[1-(1H-pyrrolo[2,3-b]pyridin-3-ylmethyl)-1H-indol-4-yl]urea hydrochloride] |  |  | A (the TGI is greater or equal to 50%) | A (the TGI is greater or equal to 50%) | < 70 |  | A (the percentage of kinase activity remains is below 70%) | ≥ 70 | A (the TGI is greater or equal to 50%) |  |  |  |  |  |  |
| O=C(Nc1cccc(Cl)c1)Nc1cccc2c1ccn2Cc1ccnc2[nH]ccc12 [Example 38, 1-(3-Chlorophenyl)-3-[1-(1H-pyrrolo[2,3-b]pyridin-4-ylmethyl)-1H-indol-4-yl]urea hydrochloride] |  |  | A (the TGI is greater or equal to 50%) |  | < 70 |  | A (the percentage of kinase activity remains is below 70%) |  |  | A (the TGI is greater or equal to 50%) |  |  |  |  |  |
| Cc1cccc(NC(=O)Nc2cccc3c2ccn3Cc2ccnc3[nH]ccc23)c1.Cl [Example 44, 1-(3-Methylphenyl)-3-[1-(1H-pyrrolo[2,3-b]pyridin-4-ylmethyl)-1H-indol-4-yl]urea hydrochloride] |  |  | A (the TGI is greater or equal to 50%) |  | < 70 | A (the TGI is greater or equal to 50%) | A (the percentage of kinase activity remains is below 70%) |  |  |  | A (the TGI is greater or equal to 50%) | 0.8 | 6 | 0.35 | A (the TGI is greater or equal to 50%) |
